The subject of the assay is murine model of ischemia/reperfusion injury (cerebral ischemia). Briefly: Murine ischemia/reperfusion model: brain infarct size/volume by TTC staining. Particulars: for infarct size (Damaged %), Average: 4 mg/Kg I.V. 1 hr after occlusion, 1 hr ischemia; for infarct size (Damaged %), Average / infarct volume (Corrected Volume), Average: mean ± SEM. Also noted: Damaged Cross Section Area (sum of sections), individual mice: unit: mm^2. It is filed as in vivo, mouse.

Where [1] appears, read: 4 mg/Kg after 1 hr ischemia, 24 hr reperfusion, n=6.
[2] abbreviates: 4 mg/Kg after 1 hr ischemia, 24 hr reperfusion, mice No. 1-6, listed as Pep-P.

Where “and” joins values, the source holds several entries; their conditions need not be identical. Equal values may be shown once.

Take “Tyr-D-Ala-Phe-Ala-Asp-Val-Ala-Ser-Thr-Ile-Gly-Asp-Phe-Phe-His-Ser-Ile-NH2 (AFADVASTIGDFFHSI; D-Ala, C-terminal amide; printed: Ala-Phe-Ala-Asp-Val-Ala-Ser-Thr-Ile-Gly-Asp-Phe-Phe-His-Ser-Ile-) [Peptide P, linear 17 amino acid peptide with alanine as D-isomer]”: for the setting “24 hr reperfusion, n=6”, the “infarct size (Damaged %), Average” value is reported as 16.87+/−3.3%. Moreover, where the note is “24 hr reperfusion, n=6, listed as Pep-P”, the “infarct size (Damaged %), Average” value came out at 16.87 ± 3.3%. Moreover, under setting [1], the “infarct volume (Corrected Volume), Average” value came to 24±4.8 mm^3 and the “Damaged Cross Section Area (sum of sections), Average” value is 11.87 ± 2.4%. For the same substance, the “infarct volume (Corrected Volume), Average” value (4 mg/Kg after 1 hr ischemia, 24 hr reperfusion, n=6, listed as Pep-P) came out at 23.74 ± 4.8% mm^3. The “Corrected Volume, individual mice” value (4 mg/Kg after 1 hr ischemia, 24 hr reperfusion, mice No. 1-6, Damaged Cross Section Area × 2 mm section, listed as Pep-P) is 35.32 mm^3 and 5.10 mm^3 and 16.98 mm^3 and 35.86 mm^3 and 25.84 mm^3 and 23.36 mm^3. Further, under setting [2], the “Damaged %, individual mice” value is 25.77% and 3.94% and 12.69% and 24.58% and 18.16% and 16.10%; the “Damaged Cross Section Area (sum of sections), individual mice” value was 17.66 and 2.55 and 8.49 and 17.93 and 12.92 and 11.68. Besides, the “reduction of infarct volume compared to control animals” value (4 mg/kg, after 24 h of reperfusion) is given as 59%. Besides, the “Damaged Cross Section Area 1, individual mice” value (brain section 1, 4 mg/Kg after 1 hr ischemia, 24 hr reperfusion, listed as Pep-P, 4 mg/kg) is 3.69 and 0 (2×) and 1.42 and 1.89 and 0.27. For the same substance, under “brain section 2, 4 mg/Kg after 1 hr ischemia, 24 hr reperfusion, listed as Pep-P, 4 mg/kg”, the “Damaged Cross Section Area 2, individual mice” value was 5.66 and 0.32 and 1.38 and 3.27 and 4.59 and 1.8. Besides, for the setting “brain section 3, 4 mg/Kg after 1 hr ischemia, 24 hr reperfusion, listed as Pep-P, 4 mg/kg”, the “Damaged Cross Section Area 3, individual mice” value is 6.47 and 1.12 and 2.63 and 7.23 and 2.22 and 5.15. Where the note is “brain section 4, 4 mg/Kg after 1 hr ischemia, 24 hr reperfusion, listed as Pep-P, 4 mg/kg”, the “Damaged Cross Section Area 4, individual mice” value is 1.84 and 1.11 and 3.06 and 5.54 and 6.11 and 4.46.
